Source: US8431530B2, “Compositions and methods for treating aids or cancer by inhibiting the secretion of microparticles” (priority 2009, dated 2013)

Tests used:
MDA-MB-231 cells = assay: Exosome (AChE marker) secretion from tumor cells, immunoblot; format: cell-based, human; conditions: MDA-MB-231, Chariot transfection, 48 hr, immunoblot densitometry normalized to tubulin; dose dependency in both compartments
Source text: FIG. 1 is a composite of diagrams showing the synthetic HIV-1 NefSMRwt peptide (antagonist) and HIV-1 NefSMRmt peptide (negative control) (panel A); the vector constructs expressing HIV-1 NefSMRwt peptide fused with GFP or HIV-1 NefSMRmt peptide fused with GFP (panel B); and the amount of acetylcholinesterase, a marker for exosomes, in MDA-MB-231 cells transfected with either HIV-1 NefSMRwt peptide (panelC) or SMRmt peptide (panel D). Untransfected MDA-MB-231 cells were used as negative controls. The cells were cultured for 48 hours in serum-free medium. One ml of supernatant was spun at 400,000×g. Supernatant pellets or set volume of cell lysate were run on PAGE, blotted, and probed with anti-AchE mAb (Acetylcholinesterase—1:1000 dilution; marker for exosomes). The cell lyasates were reprobed with anti-Tubulin mAb (1:4000). Bands were measured by densitometry, normalized against intracellular tubulin. Data shown here as percent relative to the untransfected control.
MDA-MB-231 cells were derived from human breast adenocarcinoma and […], and were obtained from the American Type Culture Collection (Manassas, Va.). […]
Pellets were resuspended in 1×SDS-PAGE loading buffer, separated by SDS-PAGE. […] Protein bands were detected by Western Blotting Luminol Reagent (Santa Cruz Biotechnology, Inc., Santa Cruz, Calif.). […]

[1] = system: R7 in Jurkat cells, HEK293 cells, THP-1 monocytes, U937 monocytes; assay: Western blot of Nef and p24 in supernatant pellets; format: cell-based, HIV; conditions: R7 co-transfection, HEK293, THP-1, U937, 400,000×g supernatant pellets
Procedure: (§1) At 2 hours, 3 days, 6 days, 9 days, 13 days, 15 days, 17 days, 20 days, 23 days, 27 days and 36 days post-transfection, 0.5 ml supernatant were collected from each plate, mixed with 0.5 ml fresh media and analyzed by p24 ELISA assay. 1.5 ml of supernatant were collected from each plate and spun in a TLA100 rotor at 400,000×g for 1 hour to create the pellets. The pellets were used for Western blot analysis with p24 mAb and Nef mAb.
No effect is observed for the negative control peptide (NefSMRmut). […] This is possibly due to antagonism of trafficking of viral component(s) to the cytoplasmic membrane. Ultimately this would (i) shutdown the HIV infection and (ii) block progression to AIDS.

R7 in U937 monocytes = assay: p24 ELISA of supernatant after R7 co-transfection; format: cell-based, HIV; conditions: up to 36 days
Procedure: Jurkat cells, HEK293 cells, THP-1 monocytes and U937 monocytes were co-transfected with either R7 […] Nef SMR wt (antagonist) or with R7+Nef SMR mt (nonfunctional antagonist) by Chariot™ Kit. The transfection efficiency was 30-40%.
R7 is a clone containing the viral genome. Transfection into cells allows expression of the viral genome and ultimately virion formation and release. The amount of virion production in the extracellular supernatant is measured through p24 protein (viral protein).
as §1

H2N-AGFPVAAAGFPVDYKDDDDK-OH (H-AGFPVAAAGFPVDYKDDDDK-OH) [SMRmt]
AChE (exosome marker) intracellularly and in the cell supernatant (MDA-MB-231 cells): no effect
amount of virus production (Western blot of p24 and Nef) [1]: No effect

H-VGFPVAAVGFPVDYKDDDDK-OH [SMRwt]
AChE (exosome marker) intracellularly and in the cell supernatant (MDA-MB-231 cells): knocked down AChE intracellularly and in the cell supernatant
p24 in supernatant (R7 in U937 monocytes): little p24
amount of virus production (Western blot of p24 and Nef) [1]: drastically reduced to zero or close to zero
